Data: ChEMBL document CHEMBL1123303, “Synthesis of 2-(4-substituted-1-piperazinyl)benzimidazoles as H1-antihistaminic agents” (J Med Chem, 1986)

Experiments:
[1] = In vivo for the inhibition of histamine-induced mortality in guinea pig; format: functional; conditions: Cavia porcellus
Histamine H1 receptor = Histamine H1 receptor (Cavia porcellus, UniProt P31389); assay: In vitro inhibition of histamine-induced contractions in guinea pig ileum; format: functional, tissue-based
Sequence of Histamine H1 receptor (P31389 whole entry): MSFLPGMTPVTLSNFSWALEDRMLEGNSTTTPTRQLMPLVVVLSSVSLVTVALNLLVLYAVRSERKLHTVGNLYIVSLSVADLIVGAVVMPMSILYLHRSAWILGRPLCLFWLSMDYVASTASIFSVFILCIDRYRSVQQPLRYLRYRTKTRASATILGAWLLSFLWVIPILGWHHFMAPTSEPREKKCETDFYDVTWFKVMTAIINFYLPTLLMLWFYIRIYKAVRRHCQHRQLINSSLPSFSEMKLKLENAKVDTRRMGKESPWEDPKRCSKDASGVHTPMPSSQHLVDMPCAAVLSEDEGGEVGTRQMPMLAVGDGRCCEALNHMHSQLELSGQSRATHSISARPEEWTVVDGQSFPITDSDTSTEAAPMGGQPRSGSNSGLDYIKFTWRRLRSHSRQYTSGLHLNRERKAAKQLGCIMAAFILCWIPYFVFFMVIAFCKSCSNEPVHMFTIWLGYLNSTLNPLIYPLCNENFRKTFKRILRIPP

Row | SMILES | ED50 [1] [mg/kg] | IC50 (Histamine H1 receptor) [µM]
1 | CCOCCn1c(N2CCCN(Cc3ccccc3)CC2)nc2ccccc21 | > 0.1 | 0.015
2 | CCOCCn1c(N2CCN(C=O)CC2)nc2ccccc21 |  | > 3
3 | COCCCn1c(N2CCN(C)CC2)nc2ccccc21 | > 0.1 | 0.86
4 | CCCCCn1c(N2CCN(C)CC2)nc2ccccc21 | 0.19 | 0.019
5 | CCCC(C)n1c(N2CCN(C)CC2)nc2ccccc21 (configuration not stated) |  | 1.4
6 | CCOCCn1c(N2CCN(Cc3ccccc3)CC2)nc2ccccc21 | 0.039 | 0.027
7 | CCOCCn1c(N2CCN(C(c3ccccc3)c3ccccc3)CC2)nc2ccccc21 |  | > 3
8 | C#CCOCCn1c(N2CCN(C)CC2)nc2ccccc21 |  | 0.012
9 | C#CCOCCn1c(N2CCCN(C)CC2)nc2ccccc21 |  | 0.0099
10 | C=CCOCCn1c(N2CCCN(C)CC2)nc2ccccc21 |  | 0.01
11 | CC(C)CCn1c(N2CCN(C)CC2)nc2ccccc21 |  | 1.4
12 | CCSCCCn1c(N2CCN(C)CC2)nc2ccccc21 |  | 0.53
13 | CCCCCCn1c(N2CCN(C)CC2)nc2ccccc21 |  | 0.026
14 | CCCCCN1CCCN(c2nc3ccccc3n2CCOCC)CC1 | > 0.05 | 0.0074
15 | CCCCCCN1CCN(c2nc3ccccc3n2CCOCC)CC1 | > 0.1 | 0.0086
16 | CCCn1c(N2CCN(C)CC2)nc2ccccc21 |  | 0.38
17 | CN1CCN(c2nc3ccccc3n2CCOc2ccccc2)CC1 |  | 0.0069
18 | COCCn1c(N2CCN(C)CC2)nc2ccccc21 | > 0.05 | 0.013
19 | CCCCN1CCCN(c2nc3ccccc3n2CCOCC)CC1 | 0.12 | 0.0084
20 | CN1CCN(c2nc3ccccc3n2CCc2ccccc2)CC1 |  | 0.24
21 | CCCN1CCCN(c2nc3ccccc3n2CCOCC)CC1 | > 0.1 | 0.0084
22 | CCCOCCn1c(N2CCN(C)CC2)nc2ccccc21 |  | 0.02
23 | CN1CCN(c2nc3ccccc3[nH]2)CC1 |  | > 3
24 | CCOCCn1c(N2CCNCC2)nc2ccccc21 |  | 0.011
25 | CCOCCn1c(N2CCCN(C)CC2)nc2ccccc21 [EMEDASTINE] | 0.0044 | 0.0061
26 | CCOCCn1c(N2CCN(CC)CC2)nc2ccccc21 |  | 0.018
27 | CN1CCN(c2nc3ccccc3n2Cc2ccccc2)CC1 | > 0.05 | 0.017

Row | SMILES | ED50 [1] [mg/kg] | IC50 (Histamine H1 receptor) [µM]
28 | CN1CCN(c2nc3ccccc3n2CCOCCO)CC1 | 0.051 | 0.042
29 | CCOCCn1c(N2CCCN(CC)CC2)nc2ccccc21 | 0.032 | 0.016
30 | CCCN1CCN(c2nc3ccccc3n2CCOCC)CC1 | 0.021 | 0.016
31 | CCCCOCCn1c(N2CCN(C)CC2)nc2ccccc21 | > 0.1 | 0.038
32 | CCCOCCn1c(N2CCCN(C)CC2)nc2ccccc21 |  | 0.016
33 | CCCSCn1c(N2CCN(C)CC2)nc2ccccc21 |  | 0.068
34 | CN1CCN(c2nc3ccccc3n2-c2ccccc2)CC1 |  | 0.76
35 | CCCCCN1CCN(c2nc3ccccc3n2CCOCC)CC1 | > 0.1 | 0.03
36 | CCCCn1c(N2CCN(C)CC2)nc2ccccc21 |  | 0.05
37 | C=COCCn1c(N2CCN(C)CC2)nc2ccccc21 | 0.023 | 0.01
38 | CCOCCn1c(N2CCN(CCc3ccccc3)CC2)nc2ccccc21 | > 0.1 | 0.031
39 | CCOCCn1c(N2CCN(c3ccccc3)CC2)nc2ccccc21 |  | > 10
40 | CN1CCN(c2nc3ccccc3n2CCOCc2ccccc2)CC1 | > 0.1 | 0.43
41 | CCOCCn1c(N2CCCNCC2)nc2ccccc21 | 0.041 | 0.025
42 | CCCCOCCn1c(N2CCCN(C)CC2)nc2ccccc21 | > 0.1 | 0.01
43 | CCCCCCCn1c(N2CCN(C)CC2)nc2ccccc21 |  | 0.15
44 | CCCCN1CCN(c2nc3ccccc3n2CCOCC)CC1 | > 0.1 | 0.015
45 | CCCCCCCCCCn1c(N2CCN(C)CC2)nc2ccccc21 |  | 4.2
46 | CN1CCN(c2nc3ccccc3n2CCO)CC1 |  | 0.41
47 | CCSCCn1c(N2CCN(C)CC2)nc2ccccc21 | 0.28 | 0.019
48 | CCCOCn1c(N2CCN(C)CC2)nc2ccccc21 | > 0.1 | 0.018
49 | CN1CCCN(c2nc3ccccc3n2CCOc2ccccc2)CC1 |  | 0.0091
50 | CCOCCn1c(N2CCN(C)CC2)nc2ccccc21 |  | 0.01
51 | CCCC(C)Cn1c(N2CCN(C)CC2)nc2ccccc21 (configuration not stated) |  | 1.5
52 | CN1CCN(c2nc3ccccc3n2C)CC1 |  | 0.32
53 | C=CCOCCn1c(N2CCN(C)CC2)nc2ccccc21 |  | 0.017
